Results reported in PMC3545186 (Biochemical Pharmacology, 2013).
Like-named read-outs stand apart in the source and are kept apart here. Numbered stars: 1 amine (or outer) side, 2 acyl side, 3 side chain; on linkers, the order of the positions; unused ones are H or OH. Bridge positions count the residues as written; N and C are the ends. Square brackets hold non-standard residues; d marks the D form. Peptide text beside a SMILES is read from it. I, II: the chains in the order shown. Actinocin(9to1) = Cc1c2oc3c(C)ccc(C(=O)[*:1])c3nc-2c(C(=O)[*:2])c(N)c1=O; NMeV = CN[C@H](C(=O)O)C(C)C; Sar = CNCC(=O)O

Key:
[1] = test system: MDCKII-ABCC1 cells; assay: Growth inhibition; assay type: cell-based, canine; settings: MDCKII-ABCC1, MK571 25 μM
[2] = test system: MDCKII-WT cells; assay: Intracellular accumulation of Act D; assay type: in vitro ADME, canine; settings: 0.01 μM Act D, 12 h
[3] = test system: MDCKII-ABCB1 cells; assay: Cellular efflux of Act D after 4 h uptake; assay type: in vitro ADME, canine; settings: MDCKII-ABCB1, after 4 h with 0.1 μM Act D
[4] = test system: MDCKII-ABCB1 cells; assay: Intracellular accumulation of Act D; assay type: in vitro ADME, canine
[5] = test system: MDCKII-ABCG2 cells; assay: Intracellular accumulation of Act D; assay type: in vitro ADME, canine
[6] = test system: MDCKII-ABCC2 cells; assay: Growth inhibition; assay type: cell-based, canine; settings: MDCKII-ABCC2, MK571 25 μM, p = 0.23
[7] = test system: MDCKII-ABCB1 cells; assay: Fluorescence competition assay with ABCB1 substrate doxorubicin; assay type: cell-based, canine; settings: MDCKII-ABCB1, 1 h pre-incubation, doxorubicin 10 μM 1 h
[8] = Act D treatment; cited from earlier work
[9] = assay type: in vivo, mice; settings: 0.5 mg/kg i.v.; for Brain peak area / Kidney concentration / Liver concentration: per gram of tissue

Cc1c2oc3c(C)ccc(C(=O)N[C@@H]4C(=O)N[C@H](C(C)C)C(=O)N5CCC[C@H]5C(=O)N(C)CC(=O)N(C)[C@@H](C(C)C)C(=O)O[C@@H]4C)c3nc-2c(C(=O)N[C@@H]2C(=O)N[C@H](C(C)C)C(=O)N3CCC[C@H]3C(=O)N(C)CC(=O)N(C)[C@@H](C(C)C)C(=O)O[C@@H]2C)c(N)c1=O [Act D, actinomycin D] (I: T[dV]P[Sar][NMeV] / II: T[dV]P[Sar][NMeV]; ester I:1-I:C, II:1-II:C; linker I:N-II:N via Actinocin(9to1))
increase in sensitivity to Act D with MK571 [1]: greater than 4 fold
intracellular accumulation of Act D [2]: 0.98 nM
reduction in intracellular Act D over 2 h after drug removal [3]: 5.5 fold
intracellular accumulation of Act D ([4]; MDCKII-ABCB1, 0.01 μM Act D, 12 h): 0.1 nM
increase in intracellular Act D with verapamil ([4]; MDCKII-ABCB1, 10 μM verapamil, 0.1 μM Act D, 4 h): 7.9 fold
lower accumulation of Act D compared to parental cell line ([4]; MDCKII-ABCB1 vs MDCKII-WT, 0.01 μM Act D, 12 h): 9.8 fold
Act D accumulation compared to WT cells ([5]; MDCKII-ABCG2): not different to WT cells
effect of co-incubation with KO143 on Act D accumulation ([5]; MDCKII-ABCG2, data not shown): no effect
effect of MK571 on sensitivity to Act D [6]: no effect
Act D concentration required to maximally inhibit doxorubicin efflux [7]: 1 to 25 µM
incidence of liver toxicities [8]: 1.7–13.5 % of cases
higher brain AUC0–6 h in Abcb1a/1b−/− mice compared to WT [9]: 2.3 fold
higher brain AUC0–6 h in Abcc2−/− mice compared to WT [9]: 1.3 fold
Brain AUC0–6 h (peak area) ([9]; Abcb1a/1b−/− mice): 6802 pa/g h
Brain Cmax (peak area) ([9]; Abcb1a/1b−/− mice): 1420 ± 521 pa
Kidney AUC0–6 h ([9]; Abcb1a/1b−/− mice): 35,381 μg/L h
Kidney AUC0–∞ ([9]; Abcb1a/1b−/− mice): 46,701 μg/L h
Kidney Cmax ([9]; Abcb1a/1b−/− mice): 13,207 ± 1025 μg/L
Liver AUC0–6 h ([9]; Abcb1a/1b−/− mice): 4616 ng·h/mL
Liver AUC0–∞ ([9]; Abcb1a/1b−/− mice): 6594 ng·h/mL
Liver Cmax ([9]; Abcb1a/1b−/− mice): 2323 ± 239 ng/mL
Brain peak area ([9]; Abcb1a/1b−/− mice, 0.25 h): 1134 ± 635 pa
Kidney concentration ([9]; Abcb1a/1b−/− mice, 0.25 h): 13,207 ± 1025 μg/L
Liver concentration ([9]; Abcb1a/1b−/− mice, 0.25 h): 2323 ± 239 µg/L
Brain peak area ([9]; Abcb1a/1b−/− mice, 0.5 h): 1420 ± 521 pa
Kidney concentration ([9]; Abcb1a/1b−/− mice, 0.5 h): 13,163 ± 2521 μg/L
Liver concentration ([9]; Abcb1a/1b−/− mice, 0.5 h): 1367 ± 133 µg/L
Brain peak area ([9]; Abcb1a/1b−/− mice, 2 h): 912.7 ± 461 pa
Kidney concentration ([9]; Abcb1a/1b−/− mice, 2 h): 5327 ± 1257 µg/L
Liver concentration ([9]; Abcb1a/1b−/− mice, 2 h): 737 ± 172 µg/L
Brain peak area ([9]; Abcb1a/1b−/− mice, 6 h): 1383 ± 439 pa
Kidney concentration ([9]; Abcb1a/1b−/− mice, 6 h): 2957 ± 872 µg/L
Liver concentration ([9]; Abcb1a/1b−/− mice, 6 h): 407 ± 9 µg/L
Brain AUC0–6 h (peak area) ([9]; Abcc2−/− mice): 3785 pa/g h
Brain Cmax (peak area) ([9]; Abcc2−/− mice): 1039 ± 181 pa
Kidney AUC0–6 h ([9]; Abcc2−/− mice): 33,079 μg/L h
Kidney AUC0–∞ ([9]; Abcc2−/− mice): 48,799 μg/L h
Kidney Cmax ([9]; Abcc2−/− mice): 13,107 ± 2318 μg/L
Liver AUC0–6 h ([9]; Abcc2−/− mice): 4445 ng·h/mL
Liver AUC0–∞ ([9]; Abcc2−/− mice): 5516 ng·h/mL
Liver Cmax ([9]; Abcc2−/− mice): 1540 ± 356 ng/mL
Brain peak area ([9]; Abcc2−/− mice, 0.25 h): 972 ± 455 pa
Kidney concentration ([9]; Abcc2−/− mice, 0.25 h): 13,107 ± 2318 μg/L
Liver concentration ([9]; Abcc2−/− mice, 0.25 h): 1317 ± 302 µg/L
Brain peak area ([9]; Abcc2−/− mice, 0.5 h): 1039 ± 181 pa
Kidney concentration ([9]; Abcc2−/− mice, 0.5 h): 10,593 ± 944 μg/L
Liver concentration ([9]; Abcc2−/− mice, 0.5 h): 1540 ± 356 µg/L
Brain peak area ([9]; Abcc2−/− mice, 2 h): 424.3 ± 120 pa
Kidney concentration ([9]; Abcc2−/− mice, 2 h): 4987 ± 161 µg/L
Liver concentration ([9]; Abcc2−/− mice, 2 h): 787 ± 99 µg/L
Brain peak area ([9]; Abcc2−/− mice, 6 h): 733 ± 470 pa
Kidney concentration ([9]; Abcc2−/− mice, 6 h): 3410 ± 527 µg/L
Liver concentration ([9]; Abcc2−/− mice, 6 h): 303 ± 128 µg/L
Brain AUC0–6 h (peak area) ([9]; WT mice): 2943 pa/g h
Brain Cmax (peak area) ([9]; WT mice): 1071 ± 217 pa
Kidney AUC0–6 h ([9]; WT mice): 29,552 μg/L h
Kidney AUC0–∞ ([9]; WT mice): 35,754 μg/L h
Kidney Cmax ([9]; WT mice): 13,323 ± 3960 μg/L
